Data from paper PMC10017709, “Structural basis of selective cannabinoid CB2 receptor activation” (Nature Communications, 2023).
Values joined by “and” are separate entries in the source; they are usually repeats but may differ in a detail not shown here. Identical values can stand only once.

Tests used:
[1] = biological target: CB2R-I110^3.29L (Homo sapiens, UniProt P34972, I110L); assay: [35S]GTPγS assay, CB2R I110L mutant; assay type: biochemical; settings: for [35S]GTPγS binding: I1103.29L, individual replicates
CB2R-I110^3.29L, sequence (P34972 whole entry I110L): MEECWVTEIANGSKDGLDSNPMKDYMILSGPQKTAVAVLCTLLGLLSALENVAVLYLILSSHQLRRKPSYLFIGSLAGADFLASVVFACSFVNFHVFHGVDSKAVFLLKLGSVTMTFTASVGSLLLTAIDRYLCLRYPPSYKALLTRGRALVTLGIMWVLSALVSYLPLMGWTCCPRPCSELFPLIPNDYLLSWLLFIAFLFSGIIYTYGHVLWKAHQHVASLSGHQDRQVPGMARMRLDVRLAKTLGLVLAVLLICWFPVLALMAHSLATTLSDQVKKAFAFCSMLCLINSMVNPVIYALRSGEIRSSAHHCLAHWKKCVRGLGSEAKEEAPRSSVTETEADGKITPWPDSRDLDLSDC

[2] = biological target: T1, CB1R-H270^ECL2L (Homo sapiens, UniProt P21554, H270L); assay: [3H]CP55,940 displacement assay, CB1R H270L mutant; assay type: binding
T1 sequence (P21554 whole entry H270L): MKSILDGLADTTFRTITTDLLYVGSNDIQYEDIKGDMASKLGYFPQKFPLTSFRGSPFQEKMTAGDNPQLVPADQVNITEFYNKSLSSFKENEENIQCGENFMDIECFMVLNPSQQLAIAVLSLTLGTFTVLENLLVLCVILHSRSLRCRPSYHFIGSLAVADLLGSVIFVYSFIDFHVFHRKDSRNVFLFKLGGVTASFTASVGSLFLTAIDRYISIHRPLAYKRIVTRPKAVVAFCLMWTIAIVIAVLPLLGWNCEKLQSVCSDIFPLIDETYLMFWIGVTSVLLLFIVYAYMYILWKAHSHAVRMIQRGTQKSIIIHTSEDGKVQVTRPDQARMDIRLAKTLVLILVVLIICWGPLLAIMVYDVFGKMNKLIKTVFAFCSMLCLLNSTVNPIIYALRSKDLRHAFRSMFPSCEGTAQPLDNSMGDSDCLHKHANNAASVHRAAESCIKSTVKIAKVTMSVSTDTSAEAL

[3] = biological target: T2, hCB1R WT (Homo sapiens, UniProt P21554); assay: [35S]GTPγS G protein activation assay, CB1R WT; assay type: biochemical; settings: CB1R WT; 10 µM agonist
T2 sequence (P21554 whole entry): as the sequence (P21554 whole entry H270L) above, with L270H counted along it

[4] = biological target: CB1R I267ECL2L (Homo sapiens, UniProt P21554, I267L); assay: [3H]CP55,940 displacement assay, CB1R I267L mutant; assay type: binding
CB1R I267ECL2L, sequence (P21554 whole entry I267L): as the sequence (P21554 whole entry H270L) above, with I267L, L270H counted along it

[5] = biological target: CB1R-L359^6.51V (Homo sapiens, UniProt P21554, L359V); assay: [35S]GTPγS assay, CB1R L359V mutant; assay type: biochemical; settings: CB1R L359V; 10 µM agonist
CB1R-L359^6.51V, sequence (P21554 whole entry L359V): as the sequence (P21554 whole entry H270L) above, with L270H, L359V counted along it

[6] = biological target: T1, CB1R-H270^ECL2L; assay: [35S]GTPγS assay, CB1R H270L mutant; assay type: biochemical; settings: CB1R H270L; 10 µM agonist
[7] = biological target: CB2R-Quadruple^TM1,7 (Homo sapiens, UniProt P34972, C40S/K279T/K33Q/V36I); assay: [3H]CP55,940 displacement assay, CB2R quadruple mutant; assay type: binding; settings: QuadrupleTM1,7, individual replicates
CB2R-Quadruple^TM1,7, sequence (P34972 whole entry K33Q/V36I/C40S/K279T): as the sequence (P34972 whole entry I110L) above, with K33Q, V36I, C40S, L110I, K279T counted along it

[8] = biological target: T3, hCB2R (Homo sapiens, UniProt P34972); assay: [3H]RO6957022 competition association assay; assay type: binding; settings: individual replicates
T3 construct: host or cells: CHO-K1 (CHOK1_hCB2bgal, PathHunter), membranes
T3 sequence (P34972 whole entry): as the sequence (P34972 whole entry I110L) above, with L110I counted along it

[9] = biological target: T2, hCB1R WT; assay: [3H]CP55,940 displacement assay, CB1R WT; assay type: binding; settings: CB1R - WT; 10 µM ligand; replicates 1-3

CC(C)(C)[C@@H](CO)NC(=O)c1nn(-c2c[n+]([O-])ccn2)c2c1C[C@@H]1C[C@H]21 [APD371]
Emax ([1]; I110L mutant, at 10 µM compared to WT, read-out: Emax (%)): 101 ± 7%
[35S]GTPγS binding ([1]; log [ligand] (M) -5): 88.75 percentage of WT and 114.10 percentage of WT and 98.70 percentage of WT
[35S]GTPγS binding ([1]; log [ligand] (M) -6): 65.58 percentage of WT and 82.80 percentage of WT and 68.20 percentage of WT
[35S]GTPγS binding ([1]; log [ligand] (M) -7): 37.92 percentage of WT and 48.30 percentage of WT and 43.20 percentage of WT
[35S]GTPγS binding ([1]; log [ligand] (M) -8): 16.04 percentage of WT and -5.10 percentage of WT and 25.10 percentage of WT
[35S]GTPγS binding ([1]; log [ligand] (M) -9): 37.59 percentage of WT and -1.70 percentage of WT and -8.60 percentage of WT
[35S]GTPγS binding ([1]; log [ligand] (M) -10): -2.00 percentage of WT and -5.20 percentage of WT
percentage specific [3H]CP55,940 binding ([2]; CB1R H270ECL2L, 10 µM ligand, replicates 1-3): 89.52 percentage and 87.15 percentage and 98.55 percentage
Displacement (%) of [3H]CP55,940 ([2]; CB1R H270L, 10 µM compound): 8 ± 3%
Agonist-mediated activation [3]: 1.0 ± 0.0 fold over its basal
percentage specific [3H]CP55,940 binding ([4]; CB1R I267ECL2L, 10 µM ligand, replicates 1-3): 153.09 percentage and 95.47 percentage and 123.57 percentage
Displacement (%) of [3H]CP55,940 ([4]; CB1R I267L, 10 µM compound): -24 ± 17%
Agonist-mediated activation [5]: 1.1 ± 0.1 fold over its basal
Agonist-mediated activation [6]: 1.1 ± 0.0 fold over its basal
percentage specific [3H]CP55,940 binding ([7]; log [ligand] (M) -5): -3.75% and 13.92% and 33.90%
percentage specific [3H]CP55,940 binding ([7]; log [ligand] (M) -6): 31.56% and 68.45% and 21.77%
percentage specific [3H]CP55,940 binding ([7]; log [ligand] (M) -7): 107.34% and 102.91% and 64.85%
percentage specific [3H]CP55,940 binding ([7]; log [ligand] (M) -8): 162.50% and 142.72% and 87.25%
percentage specific [3H]CP55,940 binding ([7]; log [ligand] (M) -9): 116.72% and 143.53% and 100.93%
percentage specific [3H]CP55,940 binding ([7]; log [ligand] (M) -10): 74.84% and 102.27% and 99.53%
percentage specific [3H]RO6957022 binding (competition association) ([8]; Time 1 min): -7.10% and 4.75% and 12.65%
percentage specific [3H]RO6957022 binding (competition association) ([8]; Time 3 min): 13.92% and 19.07% and 26.36%
percentage specific [3H]RO6957022 binding (competition association) ([8]; Time 5 min): 13.96% and 13.94% and 24.44%
percentage specific [3H]RO6957022 binding (competition association) ([8]; Time 7 min): 24.14% and 47.87% and 28.29%
percentage specific [3H]RO6957022 binding (competition association) ([8]; Time 10 min): 24.18% and 36.84% and 30.72%
percentage specific [3H]RO6957022 binding (competition association) ([8]; Time 20 min): 40.15% and 32.14% and 34.58%
percentage specific [3H]RO6957022 binding (competition association) ([8]; Time 30 min): 39.61% and 32.25% and 36.63%
percentage specific [3H]RO6957022 binding (competition association) ([8]; Time 45 min): 20.89% and 29.77% and 37.77%
percentage specific [3H]RO6957022 binding (competition association) ([8]; Time 60 min): 31.24% and 38.79% and 36.98%
percentage specific [3H]RO6957022 binding (competition association) ([8]; Time 90 min): 31.73% and 32.90% and 39.73%
percentage specific [3H]RO6957022 binding (competition association) ([8]; Time 120 min): 27.67% and 36.63% and 31.55%
percentage specific [3H]CP55,940 binding [9]: 104.41 percentage and 153.95 percentage and 99.24 percentage
